47 molecules from patent publication US11639353B2, “Cyclobutanes- and azetidine-containing mono and spirocyclic compounds as αV integrin inhibitors” (BRISTOL-MYERS SQUIBB COMPANY, priority 2016, dated 2023) can be followed below.

In the test the target is T1, human αVβ6 (Homo sapiens, UniProt P06756+P18564).
T1 construct: purchased R & D systems 3817-AV
Description: human αVβ6 HTRF binding assay. Particulars: alternatively SPA-based assay. The protocol:
All binding assays used the HTRF (homogeneous time resolved fluorescence) technology from Cisbio International, therefore all assays are described as HTRF binding assays. The assay results for the Examples are listed above together with the characterization data. The HTRF binding assays are established for the following integrins: human αVβ6, human αVβ1, human αVβ3, human αVβ5, and human αVβ8. All assays used the following assay buffer: 20 mM Tris, pH 7.4, 1 mM MgCl2, 1 mM MnCl2, 0.01% Tween 20, and 0.01% BSA. Alternatively, a SPA-based assay was used for evaluation of receptor binding.
The following describes the components and a representative procedure for the human αVβ6 HTRF binding assay: Recombinant human αVβ6 Integrin (R & D systems, 3817-AV) was biotinylated. Biotinylated human αVβ6 Integrin was added to assay vessel at a final concentration of 1.25 nM. FITC-conjugated fibronectin (Cytoskeleton, FNR02) was then added at the final concentration of 5 nM. The mixture was centrifuged at 600 rpm for three minutes using Thermo Fisher Heraeus Multifuge X3 centrifuge and then incubated at RT for an hour. Streptavidin Terbium (Cisbio international 610STLB) was then added at the final concentration of 0.625 nM. The resulting mixture was centrifuged at 600 rpm for three minutes using Thermo Fisher Heraeus Multifuge X3 centrifuge and then incubated at room temperature overnight in dark before reading HTRF signals.
The SPA-based assay was carried out according to the protocol and procedures similar to the ones described in the following reference with appropriate modifications to agents and ligands which are readily understood by one skilled in the art: Pachter J A, Zhang R, Mayer-Ezell R., “Scintillation proximity assay to measure binding of soluble fibronectin to antibody-captured αVβ1 integrin” Anal Biochem. 1995 Sep. 1; 230(1):101-7.

Molecules are shown by their SMILES. pIC50: −log10 of the molar value.

T1 sequence (P06756 31-992 limits assumed): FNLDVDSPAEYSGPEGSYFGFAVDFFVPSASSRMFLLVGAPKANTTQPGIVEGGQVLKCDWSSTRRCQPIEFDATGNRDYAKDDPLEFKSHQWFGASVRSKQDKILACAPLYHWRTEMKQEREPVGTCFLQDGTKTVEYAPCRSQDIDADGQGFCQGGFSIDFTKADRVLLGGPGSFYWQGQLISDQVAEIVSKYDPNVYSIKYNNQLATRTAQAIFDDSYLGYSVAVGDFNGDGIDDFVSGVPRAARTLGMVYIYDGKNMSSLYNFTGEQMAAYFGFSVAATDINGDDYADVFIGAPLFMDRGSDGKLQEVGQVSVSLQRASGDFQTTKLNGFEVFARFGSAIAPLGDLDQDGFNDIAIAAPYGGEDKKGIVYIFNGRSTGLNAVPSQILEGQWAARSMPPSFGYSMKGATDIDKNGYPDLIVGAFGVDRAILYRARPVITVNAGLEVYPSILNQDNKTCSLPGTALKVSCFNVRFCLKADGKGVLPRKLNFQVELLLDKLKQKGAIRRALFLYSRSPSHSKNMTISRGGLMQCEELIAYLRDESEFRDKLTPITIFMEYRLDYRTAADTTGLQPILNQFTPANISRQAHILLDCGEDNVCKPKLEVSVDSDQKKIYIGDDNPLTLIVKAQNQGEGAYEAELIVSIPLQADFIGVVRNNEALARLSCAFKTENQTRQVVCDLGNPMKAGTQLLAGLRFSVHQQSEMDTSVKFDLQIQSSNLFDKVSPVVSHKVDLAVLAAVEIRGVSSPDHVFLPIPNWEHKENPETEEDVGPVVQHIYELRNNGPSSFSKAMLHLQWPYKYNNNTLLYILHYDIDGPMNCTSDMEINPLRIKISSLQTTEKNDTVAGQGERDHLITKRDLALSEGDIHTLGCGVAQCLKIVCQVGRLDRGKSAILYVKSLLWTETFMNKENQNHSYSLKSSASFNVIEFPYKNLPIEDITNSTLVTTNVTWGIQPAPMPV
T1 sequence (P18564 22-707 limits assumed): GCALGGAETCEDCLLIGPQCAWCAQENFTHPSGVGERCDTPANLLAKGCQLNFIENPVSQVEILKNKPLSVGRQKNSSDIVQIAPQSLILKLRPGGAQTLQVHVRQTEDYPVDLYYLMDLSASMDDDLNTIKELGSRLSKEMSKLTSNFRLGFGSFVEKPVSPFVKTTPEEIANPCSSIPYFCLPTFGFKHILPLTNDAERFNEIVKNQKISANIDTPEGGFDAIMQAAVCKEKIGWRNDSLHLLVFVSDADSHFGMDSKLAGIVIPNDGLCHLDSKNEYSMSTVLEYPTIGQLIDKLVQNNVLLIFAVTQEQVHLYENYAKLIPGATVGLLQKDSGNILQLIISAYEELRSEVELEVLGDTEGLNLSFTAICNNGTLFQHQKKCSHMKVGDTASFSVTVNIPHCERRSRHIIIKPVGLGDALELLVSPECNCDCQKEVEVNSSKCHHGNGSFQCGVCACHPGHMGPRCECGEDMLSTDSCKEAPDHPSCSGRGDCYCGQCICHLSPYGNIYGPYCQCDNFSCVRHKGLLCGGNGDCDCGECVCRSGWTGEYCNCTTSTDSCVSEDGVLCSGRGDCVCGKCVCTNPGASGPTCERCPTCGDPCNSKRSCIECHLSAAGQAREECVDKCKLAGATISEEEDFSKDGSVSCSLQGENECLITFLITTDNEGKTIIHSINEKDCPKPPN

As to `Cc1cc(C)c(S(=O)(=O)N[C@@H](CNC(=O)C2CN(CCCc3ccc4c(n3)NCCC4)C2)C(=O)O)c(C)c1` [Example 14, (S)-3-(1-(3-(5,6,7,8-Tetrahydro-1,8-naphthyridin-2-yl)propyl)azetidine-3-carboxamido)-2-(2,4,6-trimethylphenylsulfonamido)propanoic acid], the negative logarithm of the IC50 (pIC50) was 9.15.
On to `COC(=O)N(C1CC2(C1)CN(CCc1ccc3c(n1)NCCC3)C2)[C@@H](CC(=O)O)c1cc(Cl)cc(Cl)c1` [Example 19, (S)-3-(3,5-Dichlorophenyl)-3-((methoxycarbonyl)(2-(2-(5,6,7,8-tetrahydro-1,8-naphthyridin-2-yl)ethyl)-2-azaspiro[3.3]heptan-6-yl)amino)propanoic acid], for which the negative-log IC50 (pIC50) is 7.07.
Next, `CN(C1CC2(C1)CN(CCc1ccc3c(n1)NCCC3)C2)[C@@H](CC(=O)O)c1cc(Cl)cc(Cl)c1` [Example 20, (S)-3-(3,5-Dichlorophenyl)-3-(methyl(2-(2-(5,6,7,8-tetrahydro-1,8-naphthyridin-2-yl)ethyl)-2-azaspiro[3.3]heptan-6-yl)amino)propanoic acid]: 7.80; `CC(=O)N(C1CN(CCCc2ccc3c(n2)NCCC3)C1)[C@@H](CC(=O)O)c1cc(Cl)cc(Cl)c1` [Example 21, (S)-3-(3,5-Dichlorophenyl)-3-(N-(1-(3-(5,6,7,8-tetrahydro-1,8-naphthyridin-2-yl)propyl)azetidin-3-yl)acetamido)propanoic acid]: 8.01; `COc1ccc(C(CC(=O)O)C2(F)CN(CCCCc3ccc4c(n3)NCCC4)C2)cc1F` (centres unmarked) [Example 22, 3-(3-Fluoro-1-(4-(5,6,7,8-tetrahydro-1,8-naphthyridin-2-yl)butyl)azetidin-3-yl)-3-(3-fluoro-4-methoxyphenyl)propanoic acid]: 8.42.
To `COc1ccc(CN(CCC(=O)O)C2CN(CCCc3ccc4c(n3)NCCC4)C2)cn1` [Example 23, 3-(((6-Methoxypyridin-3-yl)methyl)(1-(3-(5,6,7,8-tetrahydro-1,8-naphthyridin-2-yl)propyl)azetidin-3-yl)amino)propanoic acid] belongs 8.55; to `COC(Cc1ccc2c(n1)NCCC2)C1CN(C(=O)C[C@H](NC(=O)OCc2ccccc2)C(=O)O)C1` (stereo partly drawn) [Example 24, (2S)-2-(((Benzyloxy)carbonyl)amino)-4-(3-(1-methoxy-2-(5,6,7,8-tetrahydro-1,8-naphthyridin-2-yl)ethyl)azetidin-1-yl)-4-oxobutanoic acid], 6.31.
To `COc1ccc([C@H](CC(=O)O)NC(=O)C2CC(C(Cc3ccc4c(n3)NCCC4)NS(=O)(=O)c3ccc(C)cc3)C2)cc1F` (stereo partly drawn) [Example 25, (3S)-3-(3-Fluoro-4-methoxyphenyl)-3-(3-(1-(4-methylphenylsulfonamido)-2-(5,6,7,8-tetrahydro-1,8-naphthyridin-2-yl)ethyl)cyclobutanecarboxamido)propanoic acid] belongs 8.52; to `Cc1cc(C)c(S(=O)(=O)N[C@@H](CNC(=O)C2CC3(CC(NC(=O)CCc4ccc5c(n4)NCCC5)C3)C2)C(=O)O)c(C)c1` (some centres unmarked) [Example 28], 6.42; to `O=C(O)C[C@H](NC(=O)C1CC2(CC(NC(=O)CCc3ccc4c(n3)NCCC4)C2)C1)c1cc(Cl)cc(Cl)c1` (some centres unmarked) [Example 29], 5.70.
Take `O=C(O)C[C@H](NC(=O)C1CC2(CC(NC(=O)CCc3ccc4c(n3)NCCC4)C2)C1)c1cc(Cl)cc(Cl)c1` (some centres unmarked) [Example 30]: the pIC50 is 5.48.
`CCOC(=O)C[C@H](NC(=O)C1CC2(C1)CN(CCc1ccc3c(n1)NCCC3)C2)c1ccc(OC)c(F)c1` [Example 31] showed a pIC50 of 6.64.
Next, `COc1ccc([C@H](CC(=O)O)NC(=O)C2CC3(C2)CN(CCCc2ccc4c(n2)NCCC4)C3)cn1` [Example 32]: 6.89; `O=C(O)C[C@H](NC(=O)C1CC2(C1)CN(CCc1ccc3c(n1)NCCC3)C2)c1cc(Cl)cc(Cl)c1` [Example 33]: 8.57; `CC(C)(C)c1cc(Br)cc([C@H](CC(=O)O)NC(=O)C2CC3(C2)CN(CCc2ccc4c(n2)NCCC4)C3)c1` [Example 34]: 8.70.
The molecule `Cc1cc(C)c(S(=O)(=O)N[C@@H](CNC(=O)C2CC3(C2)CN(CCc2ccc4c(n2)NCCC4)C3)C(=O)O)c(C)c1` [Example 35] gave a pIC50 of 8.57.
Next, `COc1ccc([C@H](CC(=O)O)NC(=O)C2CN(CCc3ccc4c(n3)NCCC4)C2)cn1` [Example 37]: 9.00; `O=C(O)C[C@H](NC(=O)C1CN(CCc2ccc3c(n2)NCCC3)C1)c1cc(Cl)cc(Cl)c1` [Example 38]: 9.10.
To `COc1ccc([C@H](CC(=O)O)NC(=O)C2CC3(C2)CN(CCc2ccc4c(n2)NCCC4)C3)cc1F` [Example 39] belongs 8.08.
The molecule `COc1ccc([C@H](CC(=O)O)NC(=O)C2CN(CCCc3ccc4c(n3)NCCC4)C2)cn1` [Example 40] gave a negative logarithm of the IC50 (pIC50) of 8.80.
`O=C(N[C@@H](CNC(=O)C1CC2(C1)CN(CCc1ccc3c(n1)NCCC3)C2)C(=O)O)OCc1ccccc1` [Example 41]: the negative logarithm of the IC50 (pIC50) is 8.03.
To `COc1ccc([C@H](CC(=O)O)NC(=O)C2CN(CCc3ccc4c(n3)NCCC4)C2)cc1F` [Example 42] belongs 9.40; to `O=C(N[C@@H](CNC(=O)C1CN(CCc2ccc3c(n2)NCCC3)C1)C(=O)O)OCc1ccccc1` [Example 43], 9.40.
Molecule `COc1ccc([C@H](CC(=O)O)NC(=O)C2(F)CN(CCc3ccc4c(n3)NCCC4)C2)cc1F` [Example 44] showed a negative logarithm of the IC50 (pIC50) of 9.22.
Next, `COc1ccc([C@H](CC(=O)O)NC(=O)C2(F)CN(CCc3ccc4c(n3)NCCC4)C2)cn1` [Example 46]: 9.22; `CCOC(=O)[C@H](CNC(=O)C1CC2(C1)CN(CCc1ccc3c(n1)NCCC3)C2)NS(=O)(=O)c1c(C)cc(C)cc1C` [Example 47]: 6.80; `CCOC(=O)C[C@H](NC(=O)C1CN(CCc2ccc3c(n2)NCCC3)C1)c1ccc(OC)nc1` [Example 48]: 6.40.
To `CCOC(=O)C[C@H](NC(=O)C1CC2(C1)CN(CCc1ccc3c(n1)NCCC3)C2)c1cc(Cl)cc(Cl)c1` [Example 49] belongs 6.32; to `COc1ccc([C@H](CC(=O)O)NC(=O)[C@H]2C[C@@H](CCc3ccc4c(n3)NCCC4)C2)cc1F` [Example 54], 9.30.
Turning to `N[C@@H](CNC(=O)C1CN(CCc2ccc3c(n2)NCCC3)C1)C(=O)O` [Example 55], the negative-log IC50 (pIC50) was 7.70.
Next, `COc1ccc([C@H](CC(=O)O)NC(=O)C2CC(CCC3CCc4cccnc4N3)C2)cn1` (some centres unmarked) [Example 57]: 9.03; `COc1ccc([C@H](CC(=O)O)NC(=O)[C@H]2C[C@@H](CCc3ccc4c(n3)NCCC4)C2)cn1` [Example 60]: 9.00.
For `O=C(N[C@@H](CC(=O)N1CC2(CC(CCc3ccc4c(n3)NCCC4)C2)C1)C(=O)O)OCc1ccccc1` [Example 61], the pIC50 was 7.70.
Next, `O=C(C[C@H](NC(=O)OCc1ccccc1)C(=O)O)NC1CC(CCc2ccc3c(n2)NCCC3)C1` (some centres unmarked) [Example 64]: 8.40; `COc1ccc(C(CC(=O)O)CC(=O)N2CC(CCc3ccc4c(n3)NCCC4)C2)cc1F` (centres unmarked) [Example 67]: 8.15; `COc1ccc([C@H](CC(=O)O)N2CC(CCCCc3ccc4c(n3)NCCC4)C2=O)cn1` (some centres unmarked) [Example 68]: 8.62.
To `COc1ncc([C@H](CC(=O)O)N2CC(CCCCc3ccc4c(n3)NCCC4)C2=O)cn1` (some centres unmarked) [Example 70] belongs 8.24; to `O=C(O)C[C@@H](c1cc(F)cc(F)c1)N1CC(CCCCc2ccc3c(n2)NCCC3)C1=O` (some centres unmarked) [Example 71], 8.82.
Next, `COc1ccc([C@H](CC(=O)O)NC2CN(CCCc3ccc4c(n3)NCCC4)C2)cc1F` [Example 72]: 8.96.
Consider `Cc1cc(C)c(S(=O)(=O)N[C@@H](CNC2CN(CCCc3ccc4c(n3)NCCC4)C2)C(=O)O)c(C)c1` [Example 73], for which the negative logarithm of the IC50 (pIC50) is 8.19.
To `O=C(O)C[C@H](NC1CN(CCCc2ccc3c(n2)NCCC3)C1)c1cc(Cl)cc(Cl)c1` [Example 74] belongs 9.30.
To `COc1ccc([C@H](CC(=O)O)NC2CC3(C2)CN(CCc2ccc4c(n2)NCCC4)C3)cn1` [Example 75] belongs 7.77.
Next, `COc1ccc([C@H](CC(=O)O)NC(=O)N2CC(F)(CCc3ccc4c(n3)NCCC4)C2)cc1F` [Example 76]: 9.02; `O=C(O)C[C@H](NC1CC2(C1)CN(CCCc1ccc3c(n1)NCCC3)C2)c1cc(Cl)cc(Cl)c1` [Example 79]: 8.49; `O=C(O)C[C@H](NC(=O)C1(F)CN(CCc2ccc3c(n2)NCCC3)C1)c1ccc2c(c1)OCC2` [Example 81]: 9.03.
`O=C(O)C[C@H](NC(=O)[C@H]1C[C@@H](CCc2ccc3c(n2)NCCC3)C1)c1cncnc1` [Example 91] had a pIC50 of 8.54.
To `O=C(O)C[C@H](NC(=O)[C@H]1C[C@H](CCc2ccc3c(n2)NCCC3)C1)c1cc(Cl)cc(Cl)c1` [Example 92] belongs 8.92.
